Assay results taken from patent US20200360352A1, “USE OF RIFAMYCIN-NITROIMIDAZOLE COUPLING MOLECULE” (priority 2019, published 2020).
≈ marks a conversion by molar mass, not a printed value. Read-outs that look alike come from different tables or passages of the source.

Assays:
Type in all cases: cell-based
Mycodacterium chelonei = assay: MIC, micro broth dilution with resazurin readout; details: MH Culture Medium; Chelonei (standard strain); read-out: Minimum Inhibitory Concentration (MIC)
Mycobacterium kansasii [1] = assay: MBC, plating of MIC wells and CFU count; details: read-out: Minimum Bactericidal Concentration (MBC)
Mycobacterium fortuitum = assay: MIC, micro broth dilution with resazurin readout; details: Mycolicibacterium fortuitum, MH Culture Medium, read-out: Minimum Inhibitory Concentration (MIC)
Mycobacterium avium [2] = assay: MBC, plating of MIC wells and CFU count; details: read-out: Minimum Bactericidal Concentration (MBC)
Mycobacterium kansasii [3] = assay: MIC, micro broth dilution with resazurin readout; details: read-out: Minimum Inhibitory Concentration (MIC)
[4] = system: Mycobacterium intracellulare; assay: MIC, micro broth dilution with resazurin readout; details: MH Culture Medium, read-out: Minimum Inhibitory Concentration (MIC)
[5] = system: Mycobacterium massiliense; assay: MIC, micro broth dilution with resazurin readout; details: Mycobacteroides abscessus, MH Culture Medium, read-out: Minimum Inhibitory Concentration (MIC)
Mycobacterium abscessus [6] = assay: MBC, plating of MIC wells and CFU count; details: Mycobacteroides abscessus, read-out: Minimum Bactericidal Concentration (MBC)
Mycobacterium abscessus [7] = assay: MIC, micro broth dilution with resazurin readout; details: Mycobacteroides abscessus, read-out: Minimum Inhibitory Concentration (MIC)
Mycobacterium avium [8] = assay: MIC, micro broth dilution with resazurin readout; details: read-out: Minimum Inhibitory Concentration (MIC)
[9] = clinically isolated strain Fortuitum (S103)
[10] = clinically isolated strain Fortuitum (S111)
[11] = 7H9 Broth, Mycobacterium avium Smooth
[12] = MH Broth, Mycobacterium avium Smooth
[13] = MH Culture Medium, Kansasii (standard strain)
[14] = MH Culture Medium, clinically isolated strain Kansasii (S9)
[15] = MH Culture Medium, clinically isolated strain Kansasii (S199)
[16] = MH Culture Medium, clinically isolated strain Kansasii (S520)
[17] = MH Culture Medium, clinically isolated strain Kansasii (S609)
[18] = Intracellulare (standard strain)
[19] = clinically isolated strain Intracellulare (S90)
[20] = clinically isolated strain Intracellulare (S261)
[21] = clinically isolated strain Intracellulare (S269)
[22] = clinically isolated strain Intracellulare (S290)
[23] = clinically isolated strain Intracellulare (S291)
[24] = clinically isolated strain Intracellulare (S298)
[25] = clinically isolated strain Intracellulare (S442)
[26] = clinically isolated strain Intracellulare (S541)
[27] = clinically isolated strain Intracellulare (S623)
[28] = clinically isolated strain Intracellulare (ZPS)
[29] = clinically isolated strain Massiliense (D10)
[30] = clinically isolated strain Massiliense (D14)
[31] = clinically isolated strain Massiliense (D18)
[32] = MH Culture Medium, Avium (standard strain)
[33] = MH Culture Medium, clinically isolated strain Avium (S31)
[34] = MH Culture Medium, clinically isolated strain Avium (S123)
[35] = MH Culture Medium, clinically isolated strain Avium (S559)
[36] = MH Culture Medium, clinically isolated strain Avium (S568)
[37] = MH Culture Medium, clinically isolated strain Avium (S577)
[38] = MH Culture Medium, clinically isolated strain Avium (S597)
[39] = MH Culture Medium, clinically isolated strain Avium (S602)
[40] = 7H9 Broth, Mycobacterium avium Rough

SMILES: Cc1ncc([N+](=O)[O-])n1CCO [Metronidazole]
- MIC (Mycodacterium chelonei): 16 µg/mL (≈ 93.5 µM)
- MBC (Mycobacterium kansasii [1]; 7H9 Broth): > 64 µg/mL
- MBC (Mycobacterium kansasii [1]; MH Broth): > 64 µg/mL
- MIC (Mycobacterium fortuitum; Fortuitum (standard strain)): 16 µg/mL (≈ 93.5 µM)
- MIC (Mycobacterium fortuitum; [9]): 8 µg/mL (≈ 46.7 µM)
- MIC (Mycobacterium fortuitum; [10]): 16 µg/mL (≈ 93.5 µM)
- MBC (Mycobacterium avium [2]; [11]): > 64 µg/mL
- MBC (Mycobacterium avium [2]; [12]): > 64 µg/mL
- MIC (Mycobacterium kansasii [3]; 7H9 Broth): > 64 µg/mL
- MIC (Mycobacterium kansasii [3]; MH Broth): > 64 µg/mL
- MIC (Mycobacterium kansasii [3]; [13]): 8 µg/mL (≈ 46.7 µM)
- MIC (Mycobacterium kansasii [3]; [14]): 8 µg/mL (≈ 46.7 µM)
- MIC (Mycobacterium kansasii [3]; [15]): 8 µg/mL (≈ 46.7 µM)
- MIC (Mycobacterium kansasii [3]; [16]): 8 µg/mL (≈ 46.7 µM)
- MIC (Mycobacterium kansasii [3]; [17]): 8 µg/mL (≈ 46.7 µM)
- MIC [4, 18]: 8 µg/mL (≈ 46.7 µM)
- MIC [4, 19]: 16 µg/mL (≈ 93.5 µM)
- MIC [4, 20]: 16 µg/mL (≈ 93.5 µM)
- MIC [4, 21]: 16 µg/mL (≈ 93.5 µM)
- MIC [4, 22]: 8 µg/mL (≈ 46.7 µM)
- MIC [4, 23]: 8 µg/mL (≈ 46.7 µM)
- MIC [4, 24]: 16 µg/mL (≈ 93.5 µM)
- MIC [4, 25]: 8 µg/mL (≈ 46.7 µM)
- MIC [4, 26]: 16 µg/mL (≈ 93.5 µM)
- MIC [4, 27]: 8 µg/mL (≈ 46.7 µM)
- MIC [4, 28]: 8 µg/mL (≈ 46.7 µM)
- MIC [5, 29]: 16 µg/mL (≈ 93.5 µM)
- MIC [5, 30]: 16 µg/mL (≈ 93.5 µM)
- MIC [5, 31]: 8 µg/mL (≈ 46.7 µM)
- MBC (Mycobacterium abscessus [6]; 7H9 Broth): > 64 µg/mL
- MBC (Mycobacterium abscessus [6]; MH Broth): > 64 µg/mL
- MIC (Mycobacterium abscessus [7]; 7H9 Broth): > 64 µg/mL
- MIC (Mycobacterium abscessus [7]; MH Broth): > 64 µg/mL
- MIC (Mycobacterium avium [8]; [11]): > 64 µg/mL
- MIC (Mycobacterium avium [8]; [12]): > 64 µg/mL
- MIC (Mycobacterium avium [8]; [32]): 8 µg/mL (≈ 46.7 µM)
- MIC (Mycobacterium avium [8]; [33]): 16 µg/mL (≈ 93.5 µM)
- MIC (Mycobacterium avium [8]; [34]): 8 µg/mL (≈ 46.7 µM)
- MIC (Mycobacterium avium [8]; [35]): 8 µg/mL (≈ 46.7 µM)
- MIC (Mycobacterium avium [8]; [36]): 8 µg/mL (≈ 46.7 µM)
- MIC (Mycobacterium avium [8]; [37]): 8 µg/mL (≈ 46.7 µM)
- MIC (Mycobacterium avium [8]; [38]): 8 µg/mL (≈ 46.7 µM)
- MIC (Mycobacterium avium [8]; [39]): 32 µg/mL (≈ 187 µM)

SMILES: CO[C@H]1/C=C/O[C@@]2(C)Oc3c(C)c(O)c4c(O)c(c(/C=N/N5CCN(C)CC5)c(O)c4c3C2=O)NC(=O)/C(C)=C\C=C\[C@H](C)[C@H](O)[C@@H](C)[C@@H](O)[C@@H](C)[C@H](OC(C)=O)[C@@H]1C [Rifampicin]
- MIC (Mycodacterium chelonei): > 64 µg/mL
- MBC (Mycobacterium kansasii [1]; 7H9 Broth): 4 µg/mL (≈ 4.86 µM)
- MBC (Mycobacterium kansasii [1]; MH Broth): 4 µg/mL (≈ 4.86 µM)
- MIC (Mycobacterium fortuitum; Fortuitum (standard strain)): > 64 µg/mL
- MIC (Mycobacterium fortuitum; [9]): > 64 µg/mL
- MIC (Mycobacterium fortuitum; [10]): 64 µg/mL (≈ 77.8 µM)
- MBC (Mycobacterium avium [2]; [40]): > 64 µg/mL
- MBC (Mycobacterium avium [2]; [11]): 4 µg/mL (≈ 4.86 µM)
- MBC (Mycobacterium avium [2]; [12]): 4 µg/mL (≈ 4.86 µM)
- MIC (Mycobacterium kansasii [3]; 7H9 Broth): 16 µg/mL (≈ 19.4 µM)
- MIC (Mycobacterium kansasii [3]; MH Broth): 16 µg/mL (≈ 19.4 µM)
- MIC (Mycobacterium kansasii [3]; [13]): 0.125 µg/mL (≈ 0.152 µM)
- MIC (Mycobacterium kansasii [3]; [14]): 0.125 µg/mL (≈ 0.152 µM)
- MIC (Mycobacterium kansasii [3]; [15]): 0.0625 µg/mL (≈ 0.0759 µM)
- MIC (Mycobacterium kansasii [3]; [16]): 0.0625 µg/mL (≈ 0.0759 µM)
- MIC (Mycobacterium kansasii [3]; [17]): 0.0625 µg/mL (≈ 0.0759 µM)
- MIC [4, 18]: 0.25 µg/mL (≈ 0.304 µM)
- MIC [4, 19]: 8 µg/mL (≈ 9.72 µM)
- MIC [4, 20]: 16 µg/mL (≈ 19.4 µM)
- MIC [4, 21]: 4 µg/mL (≈ 4.86 µM)
- MIC [4, 22]: 4 µg/mL (≈ 4.86 µM)
- MIC [4, 23]: 4 µg/mL (≈ 4.86 µM)
- MIC [4, 24]: 4 µg/mL (≈ 4.86 µM)
- MIC [4, 25]: 2 µg/mL (≈ 2.43 µM)
- MIC [4, 26]: 16 µg/mL (≈ 19.4 µM)
- MIC [4, 27]: 8 µg/mL (≈ 9.72 µM)
- MIC [4, 28]: 2 µg/mL (≈ 2.43 µM)
- MIC [5, 29]: > 64 µg/mL
- MIC [5, 30]: > 64 µg/mL
- MIC [5, 31]: > 64 µg/mL
- MBC (Mycobacterium abscessus [6]; 7H9 Broth): > 64 µg/mL
- MBC (Mycobacterium abscessus [6]; MH Broth): > 64 µg/mL
- MIC (Mycobacterium abscessus [7]; 7H9 Broth): > 64 µg/mL
- MIC (Mycobacterium abscessus [7]; MH Broth): > 64 µg/mL
- MIC (Mycobacterium avium [8]; [40]): 8 µg/mL (≈ 9.72 µM)
- MIC (Mycobacterium avium [8]; [11]): 0.5 µg/mL (≈ 0.608 µM)
- MIC (Mycobacterium avium [8]; MH Broth, Mycobacterium avium Rough): 8 µg/mL (≈ 9.72 µM)
- MIC (Mycobacterium avium [8]; [12]): 1 µg/mL (≈ 1.22 µM)
- MIC (Mycobacterium avium [8]; [32]): 0.25 µg/mL (≈ 0.304 µM)
- MIC (Mycobacterium avium [8]; [33]): 0.0625 µg/mL (≈ 0.0759 µM)
- MIC (Mycobacterium avium [8]; [34]): 8 µg/mL (≈ 9.72 µM)
- MIC (Mycobacterium avium [8]; [35]): 0.125 µg/mL (≈ 0.152 µM)
- MIC (Mycobacterium avium [8]; [36]): 4 µg/mL (≈ 4.86 µM)
- MIC (Mycobacterium avium [8]; [37]): 0.125 µg/mL (≈ 0.152 µM)
- MIC (Mycobacterium avium [8]; [38]): 8 µg/mL (≈ 9.72 µM)
- MIC (Mycobacterium avium [8]; [39]): 2 µg/mL (≈ 2.43 µM)
